Molecules are shown by their SMILES.

In one test the test system is HCT116. Nature of the test: In Vitro cytotoxicity measured by the cell colony formation assay. It is filed as cell-based, human. The note with it: HCT116 colony formation; 72 h with drug, colonies counted after 7 days; ID50 = concentration producing 50% inhibition of colony formation; read-out: IN VITRO ID 50 HCT116. In a few lines: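 Four hundred cells per dish in McCoy's 5a medium with 10% FBS were allowed to attach for 5 h at 37 °C. They were then exposed to compound for 72 h at 37 °C, added as a 10× stock made fresh in medium. After HBSS rinsing and refeeding, colonies were counted after 7 days.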
Take `CCCC(=O)N[C@@H](c1cccs1)[C@@H](O)C(=O)O[C@H]1C[C@@]2(O)[C@@H](OC(=O)c3ccccc3)[C@@H]3[C@]4(OC(C)=O)CO[C@@H]4C[C@H](O)[C@@]3(C)C(=O)[C@H](OC(=O)CCC)C(=C1C)C2(C)C` [Compound 3148]: the IC50 is less than 1 nM.

The test is the same for the next values; noted with them: Homo sapiens, HCT-116; read-out: IN VITRO ID 50 HCT116.
For `CC(=O)O[C@@]12CO[C@@H]1C[C@H](O)[C@@]1(C)C(=O)[C@H](OC(=O)C=C(C)C)C3=C(C)[C@@H](OC(=O)[C@H](O)[C@@H](NC(=O)OC(C)(C)C)c4ccoc4)C[C@@](O)([C@@H](OC(=O)c4ccccc4)[C@H]21)C3(C)C` [Compound 2499], the IC50 is less than 1 nM. On the same count and under the same terms, then `CC(=O)O[C@@]12CO[C@@H]1C[C@H](O)[C@@]1(C)C(=O)[C@H](OC(=O)C=C(C)C)C3=C(C)[C@@H](OC(=O)[C@H](O)[C@@H](NC(=O)OC(C)(C)C)c4cccs4)C[C@@](O)([C@@H](OC(=O)c4ccccc4)[C@H]21)C3(C)C` [Compound 2503], with less than 1 nM; and `CC(=O)O[C@@]12CO[C@@H]1C[C@H](O)[C@@]1(C)C(=O)[C@H](OC(=O)C=C(C)C)C3=C(C)[C@@H](OC(=O)[C@H](O)[C@@H](NC(=O)OC(C)(C)C)c4ccsc4)C[C@@](O)([C@@H](OC(=O)c4ccccc4)[C@H]21)C3(C)C` [Compound 2511], with less than 1 nM. Still for that read-out and setting: then `CC(=O)O[C@@]12CO[C@@H]1C[C@H](O)[C@@]1(C)C(=O)[C@H](OC(=O)C=C(C)C)C3=C(C)[C@@H](OC(=O)[C@H](O)[C@@H](NC(=O)OC(C)(C)C)c4ccccc4)C[C@@](O)([C@@H](OC(=O)c4ccccc4)[C@H]21)C3(C)C` [Compound 2520], with less than 10 nM; and `CC(=O)O[C@@]12CO[C@@H]1C[C@H](O)[C@@]1(C)C(=O)[C@H](OC(=O)C3CC3)C3=C(C)[C@@H](OC(=O)[C@H](O)[C@@H](NC(=O)OC(C)(C)C)c4ccoc4)C[C@@](O)([C@@H](OC(=O)c4ccccc4)[C@H]21)C3(C)C` [Compound 2781], with less than 1 nM. Still for that read-out and setting: then `CC(=O)O[C@@]12CO[C@@H]1C[C@H](O)[C@@]1(C)C(=O)[C@H](OC(=O)C3CC3)C3=C(C)[C@@H](OC(=O)[C@H](O)[C@@H](NC(=O)OC(C)(C)C)c4ccsc4)C[C@@](O)([C@@H](OC(=O)c4ccccc4)[C@H]21)C3(C)C` [Compound 2794], with less than 1 nM; and `CC(=O)O[C@@]12CO[C@@H]1C[C@H](O)[C@@]1(C)C(=O)[C@H](OC(=O)C3CC3)C3=C(C)[C@@H](OC(=O)[C@H](O)[C@@H](NC(=O)OC(C)(C)C)c4ccccn4)C[C@@](O)([C@@H](OC(=O)c4ccccc4)[C@H]21)C3(C)C` [Compound 2802], with less than 1 nM. Consider `CC(=O)O[C@@]12CO[C@@H]1C[C@H](O)[C@@]1(C)C(=O)[C@H](OC(=O)C3CC3)C3=C(C)[C@@H](OC(=O)[C@H](O)[C@@H](NC(=O)OC(C)(C)C)c4ccncc4)C[C@@](O)([C@@H](OC(=O)c4ccccc4)[C@H]21)C3(C)C` [Compound 2813], for which the IC50 was less than 1 nM. Still for that read-out and setting: to `CC(=O)O[C@@]12CO[C@@H]1C[C@H](O)[C@@]1(C)C(=O)[C@H](OC(=O)C3CC3)C3=C(C)[C@@H](OC(=O)[C@H](O)[C@@H](NC(=O)c4ccccc4)c4ccoc4)C[C@@](O)([C@@H](OC(=O)c4ccccc4)[C@H]21)C3(C)C` [Compound 2826] belongs less than 1 nM; to `CC(=O)O[C@@]12CO[C@@H]1C[C@H](O)[C@@]1(C)C(=O)[C@H](OC(=O)C3CC3)C3=C(C)[C@@H](OC(=O)[C@H](O)[C@@H](NC(=O)c4ccccc4)c4ccsc4)C[C@@](O)([C@@H](OC(=O)c4ccccc4)[C@H]21)C3(C)C` [Compound 2838], less than 1 nM; to `CC(=O)O[C@@]12CO[C@@H]1C[C@H](O)[C@@]1(C)C(=O)[C@H](OC(=O)C3CC3)C3=C(C)[C@@H](OC(=O)[C@H](O)[C@@H](NC(=O)c4ccccc4)c4ccccn4)C[C@@](O)([C@@H](OC(=O)c4ccccc4)[C@H]21)C3(C)C` [Compound 2844], less than 10 nM. As to `CC(=O)O[C@@]12CO[C@@H]1C[C@H](O)[C@@]1(C)C(=O)[C@H](OC(=O)C3CC3)C3=C(C)[C@@H](OC(=O)[C@H](O)[C@@H](NC(=O)c4ccccc4)c4ccncc4)C[C@@](O)([C@@H](OC(=O)c4ccccc4)[C@H]21)C3(C)C` [Compound 2855], the IC50 is less than 1 nM.

In the case of `CC(=O)O[C@@]12CO[C@@H]1C[C@H](O)[C@@]1(C)C(=O)[C@H](OC(=O)C3CC3)C3=C(C)[C@@H](OC(=O)[C@H](O)[C@@H](NC(=O)c4ccccc4)c4ccc([N+](=O)[O-])cc4)C[C@@](O)([C@@H](OC(=O)c4ccccc4)[C@H]21)C3(C)C` [Compound 2869], the IC50 was less than 10 nM.

With `CCC(=O)O[C@H]1C(=O)[C@@]2(C)[C@H]([C@H](OC(=O)c3ccccc3)[C@]3(O)C[C@H](OC(=O)[C@H](O)[C@@H](NC(=O)c4ccco4)c4cccs4)C(C)=C1C3(C)C)[C@]1(OC(C)=O)CO[C@@H]1C[C@@H]2O` [Compound 3053], the IC50 was less than 1 nM. As to `CC(=O)O[C@@]12CO[C@@H]1C[C@H](O)[C@@]1(C)C(=O)[C@H](OC(=O)C3CC3)C3=C(C)[C@@H](OC(=O)[C@H](O)[C@@H](NC(=O)OC(C)C)c4cccs4)C[C@@](O)([C@@H](OC(=O)c4ccccc4)[C@H]21)C3(C)C` [Compound 3071], the IC50 was less than 1 nM.

With `CCCC(=O)O[C@H]1C(=O)[C@@]2(C)[C@H]([C@H](OC(=O)c3ccccc3)[C@]3(O)C[C@H](OC(=O)[C@H](O)[C@@H](NC(=O)OCC)c4cccs4)C(C)=C1C3(C)C)[C@]1(OC(C)=O)CO[C@@H]1C[C@@H]2O` [Compound 3096], the IC50 was less than 1 nM. On to `CC(=O)O[C@@]12CO[C@@H]1C[C@H](O)[C@@]1(C)C(=O)[C@H](OC(=O)C3CC3)C3=C(C)[C@@H](OC(=O)[C@H](O)[C@@H](NC(=O)OCC(C)C)c4ccco4)C[C@@](O)([C@@H](OC(=O)c4ccccc4)[C@H]21)C3(C)C` [Compound 3102], for which the IC50 is less than 1 nM. Take `CC(=O)O[C@@]12CO[C@@H]1C[C@H](O)[C@@]1(C)C(=O)[C@H](OC(=O)C3CC3)C3=C(C)[C@@H](OC(=O)[C@H](O)[C@@H](NC(=O)OCC(C)C)c4cccs4)C[C@@](O)([C@@H](OC(=O)c4ccccc4)[C@H]21)C3(C)C` [Compound 3129]: the IC50 is less than 10 nM. Turning to `CCCC(=O)N[C@@H](c1cccs1)[C@@H](O)C(=O)O[C@H]1C[C@@]2(O)[C@@H](OC(=O)c3ccccc3)[C@@H]3[C@]4(OC(C)=O)CO[C@@H]4C[C@H](O)[C@@]3(C)C(=O)[C@H](OC(=O)C3CC3)C(=C1C)C2(C)C` [Compound 3132], the IC50 was less than 1 nM. Take `CCC(=O)O[C@H]1C(=O)[C@@]2(C)[C@H]([C@H](OC(=O)c3ccccc3)[C@]3(O)C[C@H](OC(=O)[C@H](O)[C@@H](NC(=O)OCC(C)C)c4cccs4)C(C)=C1C3(C)C)[C@]1(OC(C)=O)CO[C@@H]1C[C@@H]2O` [Compound 3163]: the IC50 was less than 1 nM. The same measure, in the same setting: then `CCCC(=O)O[C@H]1C(=O)[C@@]2(C)[C@H]([C@H](OC(=O)c3ccccc3)[C@]3(O)C[C@H](OC(=O)[C@H](O)[C@@H](NC(=O)c4ccccc4)c4ccco4)C(C)=C1C3(C)C)[C@]1(OC(C)=O)CO[C@@H]1C[C@@H]2O` [Compound 3204], with less than 1 nM; and `CCCC(=O)N[C@@H](c1ccco1)[C@@H](O)C(=O)O[C@H]1C[C@@]2(O)[C@@H](OC(=O)c3ccccc3)[C@@H]3[C@]4(OC(C)=O)CO[C@@H]4C[C@H](O)[C@@]3(C)C(=O)[C@H](OC(=O)CC)C(=C1C)C2(C)C` [Compound 3219], with less than 1 nM. On the same count and under the same terms, to `CCCC(=O)N[C@@H](c1ccco1)[C@@H](O)C(=O)O[C@H]1C[C@@]2(O)[C@@H](OC(=O)c3ccccc3)[C@@H]3[C@]4(OC(C)=O)CO[C@@H]4C[C@H](O)[C@@]3(C)C(=O)[C@H](OC(=O)CCC)C(=C1C)C2(C)C` [Compound 3222] belongs less than 1 nM; to `CCCC(=O)O[C@H]1C(=O)[C@@]2(C)[C@H]([C@H](OC(=O)c3ccccc3)[C@]3(O)C[C@H](OC(=O)[C@H](O)[C@@H](NC(=O)c4ccccc4)c4cccs4)C(C)=C1C3(C)C)[C@]1(OC(C)=O)CO[C@@H]1C[C@@H]2O` [Compound 3258], less than 1 nM; to `CCCC(=O)O[C@H]1C(=O)[C@@]2(C)[C@H]([C@H](OC(=O)c3ccccc3)[C@]3(O)C[C@H](OC(=O)[C@H](O)[C@@H](NC(=O)OCC(C)C)c4cccs4)C(C)=C1C3(C)C)[C@]1(OC(C)=O)CO[C@@H]1C[C@@H]2O` [Compound 3265], less than 10 nM. The same measure, in the same setting: then `CC(=O)O[C@@]12CO[C@@H]1C[C@H](O)[C@@]1(C)C(=O)[C@H](OC(=O)C3CC3)C3=C(C)[C@@H](OC(=O)[C@H](O)[C@@H](NC(=O)c4ccco4)c4cccs4)C[C@@](O)([C@@H](OC(=O)c4ccccc4)[C@H]21)C3(C)C` [Compound 3297], with less than 1 nM; and `CCCC(=O)O[C@H]1C(=O)[C@@]2(C)[C@H]([C@H](OC(=O)c3ccccc3)[C@]3(O)C[C@H](OC(=O)[C@H](O)[C@@H](NC(=O)c4ccco4)c4cccs4)C(C)=C1C3(C)C)[C@]1(OC(C)=O)CO[C@@H]1C[C@@H]2O` [Compound 3352], with less than 1 nM. For the compound `CCC(=O)O[C@H]1C(=O)[C@@]2(C)[C@H]([C@H](OC(=O)c3ccccc3)[C@]3(O)C[C@H](OC(=O)[C@H](O)[C@@H](NC(=O)OC(C)C)c4cccs4)C(C)=C1C3(C)C)[C@]1(OC(C)=O)CO[C@@H]1C[C@@H]2O` [Compound 3361], the IC50 is less than 1 nM. On the same count and under the same terms, then `CCOC(=O)N[C@@H](c1cccs1)[C@@H](O)C(=O)O[C@H]1C[C@@]2(O)[C@@H](OC(=O)c3ccccc3)[C@@H]3[C@]4(OC(C)=O)CO[C@@H]4C[C@H](O)[C@@]3(C)C(=O)[C@H](OC(=O)CC)C(=C1C)C2(C)C` [Compound 3370], with less than 1 nM; and `CCCC(=O)O[C@H]1C(=O)[C@@]2(C)[C@H]([C@H](OC(=O)c3ccccc3)[C@]3(O)C[C@H](OC(=O)[C@H](O)[C@@H](NC(=O)c4cccs4)c4cccs4)C(C)=C1C3(C)C)[C@]1(OC(C)=O)CO[C@@H]1C[C@@H]2O` [Compound 3408], with less than 1 nM; and `CCCC(=O)O[C@H]1C(=O)[C@@]2(C)[C@H]([C@H](OC(=O)c3ccccc3)[C@]3(O)C[C@H](OC(=O)[C@H](O)[C@@H](NC(=O)OC(C)C)c4ccco4)C(C)=C1C3(C)C)[C@]1(OC(C)=O)CO[C@@H]1C[C@@H]2O` [Compound 3417], with less than 1 nM.
